Where no end group is shown, it is not given here.
How the values were obtained:
Assay type in all cases: cell-based
[1] = system: cell surface syndecan-1; assay: ELISA for cell surface syndecan-1 on NIH 3T3 cells; conditions: for increase of cell surface syndecan-1: confluent NIH 3T3 cells, after 48 hr culture
Protocol: An in vitro cell culture system was used to explore the mechanism by which cell surface syndecans is induced. NIH 3T3 cells grown to confluence in serum-containing medium were exposed to potential inducers and then evaluated by ELISA for the amount of cell surface syndecan-1.
Syndecan-1 at the cell surface was determined on cells cultured in 96 well tissue culture plates by washing the cells once in Tris buffered saline (TBS) (10 mM Tris, 150 mM NaCl, pH 7.4), fixing 30 min in 2% HEPES-buffered paraformaldehyde, pH 7.4, rinsing three times in TBS and incubating the cells for 30 min in TBS, 0.1% BSA, 5% goat serum. Cells were incubated for 1 hr at room temperature with 5 μg/ml mAb 281-2 (specific for extracellular domain of syndecan-1 core protein) (M. Jalkanen, H. Nguyen, A. C. Rapraeger, N. Kurn, M. Bernfield, J. Cell Biol., 101:976 (1985)) or non-specific rat IgG2A (Zymed, San Francisco, Calif.). Cells were then rinsed 3×5 min with TBS, incubated with alkaline phosphatase conjugated goat anti-rat antibody (Caltag, San Francisco, Calif.) for 30 min, rinsed 3×5 min with TBS, and alkaline phosphatase activity determined by measuring the absorbance at 405 nm of a 1 mg/ml solution of p-nitrophenolphosphate (Sigma, St. Louis, Mo.) in 10 mM Tris, 100 mM NaCl, 5 mM MgCl pH 9.5. Linear rates of absorbance change over time were determined by an automated microplate reader (Molecular Devices, Menlo Park, Calif.). Cells were then rinsed 3× with TBS and cellular protein determined by solubilizing cells in individual wells with 20 μl of 0.1N NaOH followed by protein determination (BCA protein assay, Pierce, Rockford, Ill.).
These measurements correlated strongly over the range of syndecan-1 detected in this study (r=0.96), confirming that the ELISA assay provides a quantitative assessment of cell surface syndecan-1. […]

[2] = system: NIH 3T3 cells; assay: Cell number, cell protein and morphology of treated NIH 3T3 cells
[3] = system: NIH-3T3 cells; assay: Cell permeability after PR-39 treatment (propium iodide); conditions: for fluorescent cells per 20× field: confluent NIH-3T3, 60 minutes at 37° C., 50 μg/ml propium iodide
Protocol: Cell permeability after PR-39 treatment was then measured. NIH-3T3 cells were cultured to confluence on chamber slides. 0, 0.1, 0.5, 1, and 10 μM PR-39 was added to the culture medium and incubated 60 minutes at 37° C.; then 50 μg/ml propium iodide (FW 688) was added.

[4] = system: NIH-3T3 cells; assay: Uptake and binding of iodinated PR-39
Protocol: FIG. 4 is a graph showing uptake of PR-39 by NIH-3T3 cells.
PR-39 was iodinated using the Iodogen procedure (Pierce T). The influx and efflux kinetics were calculated, accessable compartments were evaluated, and total uptake measured in NIH-3T3 cells.

[5] = system: NIH-3T3 cells; assay: Effect on cell morphology (f-actin, rhodamine phalloidin); conditions: 2 μM, 72 hr, confluent NIH-3T3
Protocol: To determine the effect on cell morphology, NIH-3T3 cells were cultured to confluence on coverslips in 24 well plates. 2 μM PR-39 was added the medium and cultured for 72 hr. 2% PFA and acetone were used to fix cells and cells were stained with f-actin with rhodamine phalloidin.

Substance	increase of cell surface syndecan-1 [1]	increase of cell number [2]	fluorescent cells per 20× field [3]	further results
FGF-2	approximately three to four-fold	about two-fold		
PDGF-AB	approximately three to four-fold	about two-fold		
RRRPRPPYLPRPRPPPFFPPRLPPRIPPGFPPRFPPRFP [PR-39]			2 /20× field	membrane permeability change ([3]; 0.1, 0.5, 1 and 10 μM, 60 minutes at 37° C.): no large perability changes; uptake into cells ([4]; iodinated PR-39, NIH-3T3 cells): rapidly associates with and enters NIH-3T3 cells; saturation of uptake ([4]; radioactive PR-39, NIH-3T3 cells): reaches a saturation point; induction of cell surface syndecan-1 by PR-39 ([1]; NIH-3T3 cells, 43 hours): concentration dependent manner; change in cell morphology [5]: No change in cell morphology
Triton™			approximately 50 /20× field	fluorescent cells, percent ([3]; confluent NIH-3T3, 50 μg/ml propium iodide): 100%

Reference: US5654273A, “Synducin mediated modulation of tissue repair” (Children's Medical Center Corporation, priority 1994, dated 1997)
